In patent publication EP0196515A1, “Photodynamic inactivation of virus in therapeutic protein compositions” (BAXTER TRAVENOL LABORATORIES, INC., priority 1985, dated 1986):

How the values were obtained:
[1] = tested on: Herpes Simplex virus; assay: Photodynamic virus inactivation, plaque assay of virus infectivity; assay type: cell-based; conditions: AHF products; chlorpromazine 1 X 10^-4M; light for less than ten minutes; read-out: logs of marker virus inactivated
[2] = tested on: LAV reverse transcriptase; assay: Photodynamic inactivation of LAV seeded into AHF, reverse transcriptase assay; assay type: biochemical; conditions: AHF seeded with LAV, Chlorpromazine 1 X 10^-4M, unfiltered Mercury Arc Lamp
Protocol: The following data supports photodynamic inactivation of LAV using indirect methods. AHF was seeded with LAV virus. In the first set of data, Protoporphyrin was added at a concentration of 5 X 10^-6M. The mixture was exposed to light ffrom a 65 watt Super Diazo Blue lamp at a distance of 10 cm. Albumin was added to the samples after inactivation to inhibit any inactivation from extraneous light. The product was lyophilized and subjected to a reverse transcriptase assay.
In the second set of data, LAV was seeded into an AHF composition. Chlorpromazine (1 X 10^-4M) was added as a photosensitize and the mixture was exposed to unfiltered light from an 85 watt high pressure mercury arc lamp at a distance of 10 cm. The product was lyophilized and analyzed for reverse transcriptase activity. Results are reported in counts per minute.

[3] = tested on: Sindbis; assay: microbe, parasite or virus in culture; assay type: cell-based; conditions: read-out: logs of marker virus inactivated
[4] = tested on: Vesicular stomatitis virus; assay: microbe, parasite or virus in culture; assay type: cell-based; conditions: read-out: logs of marker virus inactivated
[5] = target: T1, Factor VIII (Homo sapiens, UniProt P00451); assay: Factor VIII C activity, one-stage activated partial thromboplastin time assay (AHF product after photosensitizer and light)
T1 sequence (P00451 20-1332 limits assumed): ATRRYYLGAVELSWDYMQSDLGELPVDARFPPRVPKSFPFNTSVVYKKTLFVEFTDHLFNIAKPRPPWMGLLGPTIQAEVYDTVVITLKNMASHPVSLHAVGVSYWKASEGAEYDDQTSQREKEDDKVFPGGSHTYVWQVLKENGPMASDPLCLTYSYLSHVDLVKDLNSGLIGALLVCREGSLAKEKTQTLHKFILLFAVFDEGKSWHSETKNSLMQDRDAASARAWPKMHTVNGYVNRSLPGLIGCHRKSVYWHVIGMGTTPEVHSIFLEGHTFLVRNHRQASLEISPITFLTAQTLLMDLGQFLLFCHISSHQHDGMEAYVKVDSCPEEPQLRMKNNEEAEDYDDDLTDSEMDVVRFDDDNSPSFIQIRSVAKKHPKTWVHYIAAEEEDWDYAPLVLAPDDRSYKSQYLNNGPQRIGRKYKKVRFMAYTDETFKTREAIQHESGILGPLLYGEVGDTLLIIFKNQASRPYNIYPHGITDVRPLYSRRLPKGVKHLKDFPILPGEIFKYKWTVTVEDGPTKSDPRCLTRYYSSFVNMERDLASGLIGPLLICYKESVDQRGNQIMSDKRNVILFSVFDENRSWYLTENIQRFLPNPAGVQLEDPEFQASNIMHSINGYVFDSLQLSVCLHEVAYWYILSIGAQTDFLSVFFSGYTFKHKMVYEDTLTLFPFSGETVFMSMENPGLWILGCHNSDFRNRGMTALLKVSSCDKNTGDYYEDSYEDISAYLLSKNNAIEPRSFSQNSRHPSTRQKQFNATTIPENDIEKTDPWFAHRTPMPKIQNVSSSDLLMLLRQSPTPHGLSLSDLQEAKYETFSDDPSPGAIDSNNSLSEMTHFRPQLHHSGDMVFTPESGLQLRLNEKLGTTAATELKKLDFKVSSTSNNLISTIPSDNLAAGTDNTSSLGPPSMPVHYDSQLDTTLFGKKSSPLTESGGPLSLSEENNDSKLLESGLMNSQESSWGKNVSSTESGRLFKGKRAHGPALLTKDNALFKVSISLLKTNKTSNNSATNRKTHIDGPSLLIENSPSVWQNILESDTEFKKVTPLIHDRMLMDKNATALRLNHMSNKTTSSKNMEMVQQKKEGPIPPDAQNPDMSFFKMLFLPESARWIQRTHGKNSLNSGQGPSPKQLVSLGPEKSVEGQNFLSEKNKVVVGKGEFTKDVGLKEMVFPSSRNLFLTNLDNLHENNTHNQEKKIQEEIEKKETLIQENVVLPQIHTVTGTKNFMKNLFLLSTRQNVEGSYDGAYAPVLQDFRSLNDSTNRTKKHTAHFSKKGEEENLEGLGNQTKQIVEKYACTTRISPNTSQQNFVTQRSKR
T1 sequence (P00451 1668-2351 limits assumed): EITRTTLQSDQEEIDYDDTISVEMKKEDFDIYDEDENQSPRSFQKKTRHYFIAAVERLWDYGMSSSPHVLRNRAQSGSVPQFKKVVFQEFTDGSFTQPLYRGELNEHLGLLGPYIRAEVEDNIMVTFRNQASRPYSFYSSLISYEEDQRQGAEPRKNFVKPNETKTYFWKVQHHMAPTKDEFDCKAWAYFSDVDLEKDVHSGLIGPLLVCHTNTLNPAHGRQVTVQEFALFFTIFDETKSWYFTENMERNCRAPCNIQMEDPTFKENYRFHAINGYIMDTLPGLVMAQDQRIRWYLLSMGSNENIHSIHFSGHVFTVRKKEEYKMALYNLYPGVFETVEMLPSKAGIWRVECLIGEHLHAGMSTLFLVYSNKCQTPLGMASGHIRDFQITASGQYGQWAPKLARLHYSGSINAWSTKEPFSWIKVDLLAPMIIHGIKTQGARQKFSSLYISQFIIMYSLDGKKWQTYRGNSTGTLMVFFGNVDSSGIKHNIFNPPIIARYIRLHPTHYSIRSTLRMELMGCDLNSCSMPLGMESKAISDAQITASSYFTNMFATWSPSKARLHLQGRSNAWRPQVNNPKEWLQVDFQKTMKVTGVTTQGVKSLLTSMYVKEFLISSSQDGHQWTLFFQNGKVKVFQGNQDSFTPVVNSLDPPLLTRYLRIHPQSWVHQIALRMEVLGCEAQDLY
Text: The mixture was then exposed to light of a defined wavelength for a specified period of time.
Several light sources were used. A U.V. light source derived from a high pressure mercury vapor quartz lamp (85 watts) was employed. This source provided a wide band of light in the 390 to 410 nm range. A filter was used to remove the radiation below 350 nm in wave length. Alternatively a super diazo blue fluorescent lamp was used which has a peak emission near the absorption peak of the porphyrins employed.
Factor VIII C and Factor IX activity was determined by the one-stage activated partial thromboplastin time assay using Kaolin as an activator and human Factor VIII or Factor IX deficient plasma as a substrate. […] It involves the addition of the test sample to Factor VIII or Factor IX deficient plasma and measuring the degree of correction of the clotting time. This is then compared to a curve constructed using various dilutions of a lyophilized concentrate (reference) of known potency. […] Both sample and refernce are prediluted in Factor VIII deficient substrate plasma to an approximate activity of 1 U/mL. From the percentage of the reference, the potency can be estimated.

[6] = Chlorpromazine 1x10^-4M, Mercury Arc Lamp, Sensitizer added-10 min light
[7] = Chlorpromazine 1x10^-5M, Mercury Arc Lamp, Sensitizer added-10 min light
[8] = Chlorpromazine 1x10^-5M, Mercury Arc Lamp, Sensitizer added-20 min light

With CN(C)CCCN1c2ccccc2Sc2ccc(Cl)cc21 [Chlorpromazine, 10-(3-dimethyl-aminopropyl)-2-chlorphenothiazine] the log reduction at 100 µM [1] was over 5, the “C.P.M. (reverse transcriptase activity)” value ([2]; exposure 0 minutes) was 36,192 C.P.M and the “C.P.M. (reverse transcriptase activity)” value ([2]; exposure 5 minutes) was 27,100 C.P.M. The “C.P.M. (reverse transcriptase activity)” value ([2]; exposure 10 minutes) was 6,814 C.P.M, the “C.P.M. (reverse transcriptase activity)” value ([2]; exposure 20 minutes) was 4,742 C.P.M and the log reduction at 100 µM [3] was over 5. The log reduction at 100 µM [4] was over 5, the “% Change (Ref: Bulk), Percent change in Factor VIII coagulant activity” value (from here on “% Change (Ref: Bulk), Percent change”) [5, 6] was -29% and the Units/ml [5, 6] was 20.0 Units/ml. For the same molecule, the Units/ml ([5]; Chlorpromazine 1x10^-4M, Sensitizer added-no light) was 27.3 Units/ml, the “% Change (Ref: Bulk), Percent change” value [5, 7] was -23% and the Units/ml [5, 7] was 24.8 Units/ml. For the same molecule, the “% Change (Ref: Bulk), Percent change” value [5, 8] was -43%, the Units/ml [5, 8] was 18.2 Units/ml and the Units/ml ([5]; Chlorpromazine 1x10^-5M, Sensitizer added-no light) was 30.1 Units/ml.
